Results published in patent US20260159499A1, “COMPOUND AS FAK INHIBITOR AND USE THEREOF” (WIGEN BIOMEDICINE TECHNOLOGY (SHANGHAI) CO., LTD., priority 2021, published 2026).

Assays:
PC3 cells [1] = experiment: PC3 cell proliferation, 2D activity detection; format: cell-based, human; settings: PC3, 2D, 72 h, class symbol, read-out: 2D IC50 against PC3 cells
Protocol: 2D activity detection: 1200 PC3 cells were seeded in a 96-well plate. After overnight adherence culture, the compound serially diluted was added. 72 h after addition, Cell Titer-Lumi (Beyotime C0068XL) was added to measure the ATP content in the cells. The growth of the cells was evaluated, and IC50 of the compounds against cell growth was calculated.

FAK recombinant protein = FAK recombinant protein (Homo sapiens, UniProt Q05397); experiment: Inhibitory activity against FAK enzyme; format: biochemical; settings: TK substrate, ATP
Sequence of FAK recombinant protein (Q05397 whole entry, species assumed): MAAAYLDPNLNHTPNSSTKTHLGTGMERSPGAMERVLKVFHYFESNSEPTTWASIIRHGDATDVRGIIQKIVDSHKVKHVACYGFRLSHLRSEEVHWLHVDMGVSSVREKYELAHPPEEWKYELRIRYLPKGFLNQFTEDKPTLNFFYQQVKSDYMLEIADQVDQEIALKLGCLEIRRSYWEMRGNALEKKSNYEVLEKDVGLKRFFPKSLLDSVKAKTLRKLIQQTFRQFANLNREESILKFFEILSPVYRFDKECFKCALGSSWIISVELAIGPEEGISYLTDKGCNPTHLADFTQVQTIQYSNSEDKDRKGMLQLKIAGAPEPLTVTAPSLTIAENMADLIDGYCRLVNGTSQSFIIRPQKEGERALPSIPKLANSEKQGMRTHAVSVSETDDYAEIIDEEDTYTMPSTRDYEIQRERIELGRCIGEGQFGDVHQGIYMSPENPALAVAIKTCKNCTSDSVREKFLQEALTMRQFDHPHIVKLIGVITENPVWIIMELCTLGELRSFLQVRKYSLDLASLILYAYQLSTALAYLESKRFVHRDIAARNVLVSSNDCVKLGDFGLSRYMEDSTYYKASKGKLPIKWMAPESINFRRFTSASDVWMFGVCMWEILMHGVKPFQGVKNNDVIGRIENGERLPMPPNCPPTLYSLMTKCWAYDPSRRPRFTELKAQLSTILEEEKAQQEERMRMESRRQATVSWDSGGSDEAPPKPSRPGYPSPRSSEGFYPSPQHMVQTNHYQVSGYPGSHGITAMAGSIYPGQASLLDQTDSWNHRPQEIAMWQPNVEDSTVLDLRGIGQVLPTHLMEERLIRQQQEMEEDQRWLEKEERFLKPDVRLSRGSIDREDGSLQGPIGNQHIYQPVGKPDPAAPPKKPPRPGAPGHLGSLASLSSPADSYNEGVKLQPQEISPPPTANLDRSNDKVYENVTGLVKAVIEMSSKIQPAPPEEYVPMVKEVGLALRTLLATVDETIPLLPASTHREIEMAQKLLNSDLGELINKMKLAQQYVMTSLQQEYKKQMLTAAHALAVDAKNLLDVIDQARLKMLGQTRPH
Protocol: The compound serially diluted with DMSO and a FAK recombinant protein were mixed, and the mixture was left to stand at room temperature for 10 min. A biotin-labeled TK substrate (TK) and ATP were then added. […] After the mixture was incubated at room temperature for 1 h, the fluorescence intensity at 615 nm and 665 nm was measured. The ratio of the fluorescence intensity at 665 nm and 615 nm was calculated. The inhibition percentages and IC50 of the compounds were calculated compared to the DMSO control group.

PC3 cells [2] = experiment: PC3 cell proliferation, 3D activity detection; format: cell-based, human; settings: PC3, 3D culture, 14 days, read-out: 3D IC50 against PC3 cells
Protocol: 3D activity detection: PC3 cells were seeded in a 96-well plate at 1200 cells/well, and 3D culture was performed. 14 days after the compound serially diluted was added, the growth of the cells was determined. The inhibition percentage and IC50 of the compound were calculated compared to the DMSO control group.

[3] = Homo sapiens, PC-3, 336 h, class symbol

Row | Structure (SMILES) | IC50 (PC3 cells [1]; Homo sapiens, PC-3) [nM] | IC50 (FAK recombinant protein) [nM] | IC50 (PC3 cells [2]; [3]) [nM] | IC50 (PC3 cells [2]; Homo sapiens, PC-3, 336 h, numeric (mean where marked *)) [nM] | IC50 (PC3 cells [1]) [nM] | IC50 (PC3 cells [2]; class symbol) [nM]
1 | CNC(=O)c1ccccc1Oc1nc(Nc2cc(F)c(C(=O)NC3CCC4(CC3)CCN(C)CC4)cc2OC)ncc1C(F)(F)F [Compound 9] | > 2000 | 10 to 50 | 5 to 50 | – | – | –
2 | COc1cc(C(=O)NC2CCC3(CC2)CCN(C)CC3)c(F)cc1Nc1ncc(C(F)(F)F)c(Oc2ccccc2N(C)S(C)(=O)=O)n1 [Compound 16] | > 2000 | 10 to 50 | 5 to 50 | – | – | –
3 | COc1cc(C(=O)NC2COC3(CCN(C)CC3)C2)c(F)cc1Nc1ncc(C(F)(F)F)c(Oc2cccc3c2C(=O)N(C)C3)n1 (stereo not drawn) [Compound 23] | > 2000 | < 10 | – | 3.71 | – | –
4 | COc1cc(C(=O)NC2CCC3(CCN(C)CC3)C2)c(F)cc1Nc1ncc(C(F)(F)F)c(Oc2cccc3c2C(=O)N(C)C3)n1 (stereo not drawn) [Compound 24] | > 2000 | < 10 | 5 to 50 | – | – | –
5 | COc1cc(C(=O)NC2CCC3(CC2)CCN(C)C3)c(F)cc1Nc1ncc(C(F)(F)F)c(Oc2cccc3c2C(=O)N(C)C3)n1 (stereo not drawn) [Compound 25] | > 2000 | < 10 | < 5 | – | – | –
6 | COc1cc(C(=O)NC2CCC3(CC2)CCN(C)CC3)c(F)cc1Nc1ncc(C(F)(F)F)c(Oc2cccc3c2C(=O)N(C)C3)n1 [Compound 26] | > 2000 | < 10 | 5 to 50 | – | – | –
7 | COc1cc(C(=O)NC2CCC3(CCN(C)C3)C2)c(F)cc1Nc1ncc(C(F)(F)F)c(Oc2cccc3c2C(=O)N(C)C3)n1 (stereo not drawn) [Compound 27] | > 2000 | < 10 | 5 to 50 | – | – | –
8 | COc1cc(C(=O)NC2CCN3CCOC3C2)c(F)cc1Nc1ncc(C(F)(F)F)c(Oc2cccc3c2C(=O)N(C)C3)n1 (stereo not drawn) [Compound 30] | > 2000 | < 10 | 5 to 50 | – | – | –
9 | COc1cc(C(=O)NC2CCN3CCN=C3C2)c(F)cc1Nc1ncc(C(F)(F)F)c(Oc2cccc3c2C(=O)N(C)C3)n1 (stereo not drawn) [Compound 31] | > 2000 | < 10 | 5 to 50 | – | – | –
10 | COc1cc(C(=O)NC2CCn3ccnc3C2)c(F)cc1Nc1ncc(C(F)(F)F)c(Oc2cccc3c2C(=O)N(C)C3)n1 (stereo not drawn) [Compound 32] | > 2000 | < 10 | 5 to 50 | – | – | –
11 | COc1cc(C(=O)NC2CCn3cnnc3C2)c(F)cc1Nc1ncc(C(F)(F)F)c(Oc2cccc3c2C(=O)N(C)C3)n1 (stereo not drawn) [Compound 33] | > 2000 | < 10 | 5 to 50 | – | – | –
12 | COc1cc(C(=O)N2CCC3(CCN(C)CC3)CC2)c(F)cc1Nc1ncc(C(F)(F)F)c(Oc2cccc3c2C(=O)N(C)C3)n1 [Compound 35] | > 2000 | > 50 | > 50 | – | – | –
13 | COc1cc(C(=O)N2CCC3(CCN(C)C3)C2)c(F)cc1Nc1ncc(C(F)(F)F)c(Oc2cccc3c2C(=O)N(C)C3)n1 (stereo not drawn) [Compound 36] | > 2000 | < 10 | 5 to 50 | – | – | –
14 | COc1cc(C(=O)N2CCC3(CCN(C)C3)C2)c(F)cc1Nc1ncc(C(F)(F)F)c(Oc2cccc3c2C(=O)N(C)C3)n1 (stereo not drawn) [Compound 37] | – | < 10 | – | – | > 2000 | 5 to 50
15 | COc1cc(C(=O)N2CCC23CCN(C)CC3)c(F)cc1Nc1ncc(C(F)(F)F)c(Oc2cccc3c2C(=O)N(C)C3)n1 [Compound 38] | > 2000 | 10 to 50 | 5 to 50 | – | – | –
16 | COc1cc(C(=O)N2CCC3(CCN(C)CC3)C2)c(F)cc1Nc1ncc(C(F)(F)F)c(Oc2cccc3c2C(=O)N(C)C3)n1 [Compound 39] | > 2000 | < 10 | 5 to 50 | – | – | –
17 | COc1cc(C(=O)N2CCC3(CCCN(C)C3)C2)c(F)cc1Nc1ncc(C(F)(F)F)c(Oc2cccc3c2C(=O)N(C)C3)n1 (stereo not drawn) [Compound 40] | > 2000 | < 10 | 5 to 50 | – | – | –
18 | COc1cc(C(=O)NC2CC3(CCNCC3)C2)c(F)cc1Nc1ncc(C(F)(F)F)c(Oc2cccc3c2C(=O)N(C)C3)n1 [Compound 41] | > 2000 | 10 to 50 | 5 to 50 | – | – | –
19 | CCN1CCC2(CC1)CC(NC(=O)c1cc(OC)c(Nc3ncc(C(F)(F)F)c(Oc4cccc5c4C(=O)N(C)C5)n3)cc1F)C2 [Compound 42] | > 2000 | < 10 | < 5 | – | – | –
20 | COc1cc(C(=O)NC2CC3(CCN(C)CC3)C2)c(Cl)cc1Nc1ncc(C(F)(F)F)c(Oc2cccc3c2C(=O)N(C)C3)n1 [Compound 43] | > 2000 | < 10 | < 5 | – | – | –
21 | COc1cc(C(=O)NC2CCC3(CC2)CN(C)C3)c(Cl)cc1Nc1ncc(C(F)(F)F)c(Oc2cccc3c2C(=O)N(C)C3)n1 [Compound 44] | > 2000 | < 10 | 5 to 50 | – | – | –
22 | COc1cc(C(=O)NC2CC3(CCN(C)CC3)C2)ccc1Nc1ncc(C(F)(F)F)c(Oc2cccc3c2C(=O)N(C)C3)n1 [Compound 45] | > 2000 | < 10 | < 5 | – | – | –
23 | COc1cc(C(=O)NC2CCC3(CC2)CN(C)C3)ccc1Nc1ncc(C(F)(F)F)c(Oc2cccc3c2C(=O)N(C)C3)n1 [Compound 46] | > 2000 | < 10 | 5 to 50 | – | – | –
24 | [2H]C([2H])([2H])N1CCC2(CC1)CC(NC(=O)c1cc(OC)c(Nc3ncc(C(F)(F)F)c(Oc4cccc5c4C(=O)N(C)C5)n3)cc1F)C2 [Compound 47] | > 2000 | < 10 | < 5 | – | – | –
25 | [2H]C([2H])([2H])N1CC2(CCC(NC(=O)c3cc(OC)c(Nc4ncc(C(F)(F)F)c(Oc5cccc6c5C(=O)N(C)C6)n4)cc3F)CC2)C1 [Compound 48] | > 2000 | < 10 | 5 to 50 | – | – | –
26 | COc1cc(C(=O)NC2CC3(CCN(C)CC3)C2)c(F)cc1Nc1ncc(C(F)(F)F)c(Cc2cccc3c2C(=O)N(C)C3)n1 [Compound 49, 2-fluoro-5-methoxy-4-((4-((2-methyl-3-oxoisoindolin-4-yl)methyl)-5-(trifluoromethyl)pyrimidin-2-yl)amino)-N-(7-methyl-7-azaspiro[3.5]nonan-2-yl)benzamide] | > 2000 | < 10 | < 5 | – | – | –

Further lines, results first:

Row | IC50 (PC3 cells [1]; Homo sapiens, PC-3) [nM] | IC50 (FAK recombinant protein) [nM] | IC50 (PC3 cells [2]; [3]) [nM] | IC50 (PC3 cells [2]; Homo sapiens, PC-3, 336 h, numeric (mean where marked *)) [nM] | IC50 (PC3 cells [1]) [nM] | IC50 (PC3 cells [2]; class symbol) [nM] | Structure (SMILES)
27 | > 2000 | < 10 | 5 to 50 | – | – | – | CNC(=O)c1ccccc1Oc1nc(Nc2cc(F)c(C(=O)NC3CC4(CCN(C)CC4)C3)cc2OC)ncc1C(F)(F)F [Compound 1, 2-fluoro-5-methoxy-N-(7-methyl-7-azaspiro[3.5]nonan-2-yl)-4-((4-(2-(methylcarbamoyl)phenoxy)-5-(trifluoromethyl)pyrimidin-2-yl)amino)benzamide]
28 | > 2000 | < 10 | 5 to 50 | – | – | – | CNC(=O)c1ccccc1Oc1nc(Nc2cc(F)c(C(=O)NC3CCC4(CC3)CN(C)C4)cc2OC)ncc1C(F)(F)F [Compound 2]
29 | > 2000 | < 10 | 5 to 50 | – | – | – | CNC(=O)c1ccccc1Oc1nc(Nc2cc(F)c(C(=O)NC3CC4(CCN(C)CC4)CO3)cc2OC)ncc1C(F)(F)F (stereo not drawn) [Compound 3]
30 | > 2000 | < 10 | 5 to 50 | – | – | – | CNC(=O)c1ccccc1Oc1nc(Nc2cc(F)c(C(=O)NC3CC4(CCN(C)C4)CO3)cc2OC)ncc1C(F)(F)F (stereo not drawn) [Compound 5]
31 | > 2000 | < 10 | < 5 | – | – | – | COc1cc(C(=O)NC2CC3(CCN(C)CC3)C2)c(F)cc1Nc1ncc(C(F)(F)F)c(Oc2ccccc2N(C)S(C)(=O)=O)n1 [Compound 10]
32 | > 2000 | < 10 | 5 to 50 | – | – | – | COc1cc(C(=O)NC2CCC3(CCN(C)CC3)C2)c(F)cc1Nc1ncc(C(F)(F)F)c(Oc2ccccc2N(C)S(C)(=O)=O)n1 (stereo not drawn) [Compound 11]
33 | > 2000 | < 10 | < 5 | – | – | – | COc1cc(C(=O)NC2CC3(CCN(C)CC3)CO2)c(F)cc1Nc1ncc(C(F)(F)F)c(Oc2ccccc2N(C)S(C)(=O)=O)n1 (stereo not drawn) [Compound 12]
34 | > 2000 | < 10 | 5 to 50 | – | – | – | COc1cc(C(=O)NC2CCC3(CCN(C)C3)C2)c(F)cc1Nc1ncc(C(F)(F)F)c(Oc2ccccc2N(C)S(C)(=O)=O)n1 (stereo not drawn) [Compound 13]
35 | > 2000 | < 10 | < 5 | – | – | – | COc1cc(C(=O)NC2CC3(CCN(C)C3)CO2)c(F)cc1Nc1ncc(C(F)(F)F)c(Oc2ccccc2N(C)S(C)(=O)=O)n1 (stereo not drawn) [Compound 14]
36 | > 2000 | < 10 | < 5 | – | – | – | COc1cc(C(=O)NC2COC3(CCN(C)C3)C2)c(F)cc1Nc1ncc(C(F)(F)F)c(Oc2ccccc2N(C)S(C)(=O)=O)n1 (stereo not drawn) [Compound 15]
37 | > 2000 | < 10 | 5 to 50 | – | – | – | COc1cc(C(=O)NC2CCC3(CC2)CN(C)C3)c(F)cc1Nc1ncc(C(F)(F)F)c(Oc2ccccc2N(C)S(C)(=O)=O)n1 [Compound 17]
38 | > 2000 | < 10 | 5 to 50 | – | – | – | COc1cc(C(=O)NC2CCC3(CC2)CCN3C)c(F)cc1Nc1ncc(C(F)(F)F)c(Oc2ccccc2N(C)S(C)(=O)=O)n1 (stereo not drawn) [Compound 18]
39 | > 2000 | < 10 | < 5 | – | – | – | COc1cc(C(=O)NC2CCC3(CC2)CCN3C)c(F)cc1Nc1ncc(C(F)(F)F)c(Oc2cccc3c2C(=O)N(C)C3)n1 (stereo not drawn) [Compound 22]
